Test results reported in patent US20230302022A1, “PREVENTING OR MITIGATING CHEMOTHERAPY INDUCED ALOPECIA USING VITAMIN D” (priority 2016, published 2023).

Assays:
[1] = system: patients; test: Phase I study: chemotherapy-induced alopecia in patients; type: in vivo, human; conditions: patients at all dose levels, weeks 7 and 15 vs baseline
Description: Photographic assessment will be performed using a Canon Power Shot G12 camera system to ensure standardization and uniformity among all enrolled patients. The following five views will be obtained at each photographic assessment: bilateral sides of head/scalp view, front of head/face view, back of head/scalp view, and top of head/scalp view. Additionally, close-up photographs will be taken at the same times points. […] Photographs will be standardized for lighting, camera angle, and position to the participants head. These assessments will be performed at the following time points: at baseline, weeks 7, 15, 27, and 54. Photographs for patients in each cohort representing baseline, and treatment weeks 7 and 15 will be presented blind to the study principle investigator after at least 3 patients have completed 15 weeks of treatment. Photographs will also be taken at week 27 and week 54 of the study but will be included in the final photographic assessment as secondary information. […]
Subjective record of hair and scalp. Alopecia will also be subjectively recorded through the patient self-reported diaries. […]
Each patient underwent PK analysis, adverse event monitoring, patient self-assessment diaries (1-10 scale), and blinded photographic assessments. […] Toxicity was determined on a weekly basis during Cycle 1 (i.e., the first 28 days of topical agent application) and subsequently every four weeks. […]

[2] = system: Sprague Dawley rats; test: Cyclophosphamide-induced alopecia in neonatal Sprague Dawley rats, 1,25(OH)2D3 in ethanol; type: in vivo, rat; conditions: 0.2 μg 1,25(OH)2D3 in 150 μL ethanol daily day 5-10, all animals
Procedure: Neonatal Rat model and PCA model. Sprague Dawley rats were purchased from Charles River Laboratories (Wilmington, MA). C3H/HeJ mouse were purchased from Jackson Laboratories (Bar Harbour, ME). Rodents were housed and fed according to NIH guidelines. […] Uskokovic (Hoffman-La Roche, Nutley, NJ). For experiments involving C3H/HeJ mice, 1,25(OH)2D3 was purchased from Sigma (St. Louis, M0). Topical application of 1,25(OH)2D3. 1,25(OH)2D3 was dissolved in absolute ethanol and applied topically with an applicator. Control animals were similarly treated with vehicle only. Animals were then isolated for a period of 3 hours following which the treated area was washed with soap and water and dried. For CIA experiments, 1,25(OH)2D3 was given daily beginning on day 5 after birth and ending on day 10. […] For CIA and PCA, the experimental group was treated with 0.2 μg of 1,25(OH)2D3 in 150 μL of absolute ethanol applied topically over the head and neck. In both instances, the control group received ethanol vehicle only. […] Both chemotherapies were started at 11 days of age. Alopecia was recorded on the tenth day after the first dose of chemotherapy. […] Rats were randomized into two groups of ten rats each. One group received vehicle control, while the other received 0.2 μg 1,25(OH)2D3. […] Animals were observed until complete hair regrowth was obtained.

[3] = system: HEKa cells; test: Real-time PCR Heat Shock Protein array, calcitriol-treated HEKa cells; type: cell-based, human; conditions: 0.1 μg/mL calcitriol, two independent experiments
Procedure: The PCR array analysis utilized two groups of genes—those related to Heat Shock Proteins (SABiosciences), and those related to Neuroscience Ion Channels and Transporters (SABioscience). Cell culture: Primary human epidermal keratinocytes (HEKa) were maintained in Epilife Medium (Cascade Biologics, Inc., Portland OR) along with Human Keratinocyte Growth Supplement (Cascade Biologics, Inc., Portland OR). […] D3 treatment of HEKa cells: […] Vehicle control group of cells were treated with 5 mL media containing 1 μL of ethanol. Cells were harvested 3, 6, 16, 24, 48, or 72 hours after the start of the treatment. RNA isolation: Cells were lysed for RNA isolation at different treatment times using the RNeasy Mini kit (Qiagen, Inc., Valencia CA) following the manufacturer's instructions. RNA was quantified by measuring optical density at 260 nm. First Strand Synthesis: […] Real-time PCR: Products from the first strand synthesis were diluted with water, mixed with the SYBR green master mix (SABiosciences., Frederick MD) and loaded onto PCR arrays. Real time PCR was run on the PCR Arrays (Heat Shock Protein Arrays, and Neuroscience and Ion Channel Arrays) (SABiosciences, Frederick MD) on a Biorad CFX96. Data analyses were performed using the PCR array data analysis software available on the SABiosciences website.

[4] = system: C3H/HeJ mouse; test: C3H/HeJ model of alopecia areata; type: in vivo; conditions: 0.2 μg for 15 days, observed 30 days
Description: Neonatal Rat model and PCA model. Sprague Dawley rats were purchased from Charles River Laboratories (Wilmington, MA). C3H/HeJ mouse were purchased from Jackson Laboratories (Bar Harbour, ME). Rodents were housed and fed according to NIH guidelines. […] Uskokovic (Hoffman-La Roche, Nutley, NJ). For experiments involving C3H/HeJ mice, 1,25(OH)2D3 was purchased from Sigma (St. Louis, M0). C3H/HeJ Model of Abpecia Areata. Retired breeders (8 months of age) were observed daily for the development of AA lesions.

[5] = Chemical stability; type: physicochemical

C=C1/C(=C\C=C2/CCC[C@]3(C)[C@@H]([C@H](C)CCCC(C)(C)O)CC[C@@H]23)C[C@@H](O)C[C@@H]1O [Calcitriol, (5Z,7E)-9,10-secocholesta-5,7.10(19Hriene-1 a,33.25-triol]
chemotherapy induced alopecia [1]: diminished chemotherapy induced alopecia | cyclophosphamide-induced alopecia [2]: did not develop alopecia | DNAJC6 mRNA Regulation Pattern [3]: Downregulated | HSF4 mRNA Regulation Pattern [3]: Upregulated at 48 hours | HSPA2 mRNA Regulation Pattern [3]: Upregulated at 48 hours | HSPB1 mRNA Regulation Pattern [3]: Down regulated at 48 hours | regrowth of hair in alopecic lesions [4]: No regrowth of hair | Chemical Stability [5]: Stable at room temperature
